This note sets out measurements from patent US6235777A, “Benzenesulfonamide compounds” (Ono Pharmaceutical Co., Ltd., priority 1997, dated 2001).

One experiment concerns the target T1, mouse EP1 (Mus musculus, UniProt P35375).
T1 construct: expressed in transfected cells; host or cells: CHO
T1 sequence (P35375 1-405): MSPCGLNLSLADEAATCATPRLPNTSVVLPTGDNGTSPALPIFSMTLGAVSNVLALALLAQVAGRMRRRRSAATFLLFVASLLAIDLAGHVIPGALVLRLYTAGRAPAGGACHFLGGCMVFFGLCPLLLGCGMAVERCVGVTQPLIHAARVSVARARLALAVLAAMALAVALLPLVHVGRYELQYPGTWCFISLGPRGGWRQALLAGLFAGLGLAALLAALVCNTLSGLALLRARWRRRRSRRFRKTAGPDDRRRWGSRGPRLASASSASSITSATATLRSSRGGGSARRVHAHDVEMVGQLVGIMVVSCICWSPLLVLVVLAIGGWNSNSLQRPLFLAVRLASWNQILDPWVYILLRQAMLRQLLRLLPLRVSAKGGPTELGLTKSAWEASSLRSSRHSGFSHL
Kind of experiment: Binding assay using expression cell of prostanoid receptor subtype (EP1; competition of specific 3H-PGE2 binding to CHO cell membrane fraction). To be noted: Table 1, 3H-PGE2 2.5 nM, 1 hour, room temperature, pH6.0, read-out: dissociation constant to receptor subtype, Ki (EP1), present invention compounds. As to the method: (§1) (i) Binding Assay Using Expression Cell of Prostanoid Receptor Subtype
(§2) The standard assay mixture contained membrane fraction (0.5 mg/ml), ^3 H-PGE2 in a final volume of 200 microliter was incubated for 1 hour at room temperature. The reaction was terminated by addition of 3 ml of ice-cold buffer. The mixture was rapidly filtered through a glass filter (GF/B). The radioactivity associated with the filter was measured by liquid scintillation counting.
(§3) Non-specific binding was calculated as the binding in the presence of an excess (2.5 microM) of unlabeled PGE2. […] The following buffer was used in all reaction. Buffer:potassium phosphate (pH6.0, 10 mM), EDTA (1 mM), MgCl2 (10 mM), NaCl (0.1M).
(§4) The dissociation constant Ki (microM) of each compound was calculated by the following equation.

In a further experiment the target is T2, mouse EP3 (Mus musculus, UniProt P30557).
T2 construct: expressed in transfected cells; host or cells: CHO
T2 sequence (P30557 1-365): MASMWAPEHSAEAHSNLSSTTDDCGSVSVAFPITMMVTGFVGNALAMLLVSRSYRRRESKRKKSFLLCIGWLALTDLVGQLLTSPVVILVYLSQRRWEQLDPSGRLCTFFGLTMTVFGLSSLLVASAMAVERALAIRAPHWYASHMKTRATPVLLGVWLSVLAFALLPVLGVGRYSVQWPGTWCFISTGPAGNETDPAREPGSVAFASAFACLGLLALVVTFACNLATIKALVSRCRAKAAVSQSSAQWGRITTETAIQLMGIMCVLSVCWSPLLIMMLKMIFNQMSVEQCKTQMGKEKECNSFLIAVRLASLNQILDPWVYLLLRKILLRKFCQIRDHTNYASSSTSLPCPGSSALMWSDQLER
Kind of experiment: Binding assay using expression cell of prostanoid receptor subtype (EP3; competition of specific 3H-PGE2 binding to CHO cell membrane fraction). The note with it: Table 1, 3H-PGE2 2.5 nM, 1 hour, room temperature, pH6.0, read-out: dissociation constant to receptor subtype, Ki (EP3), present invention compounds. The protocol:
as §1, §2, §3, §4

For the compound `Cc1cc(Cl)ccc1S(=O)(=O)NC[C@H]1C2CCC(CC2)[C@@H]1/C=C\CCCC(=O)O` [Example 2(c), 6-[(2S, 3S)-3-(4-chloro-2-methylphenylsulfonylaminomethyl)bicyclo[2.2. 2]octan-2-yl]-5Z-hexenoic acid], the Ki (in general, a measure of affinity in units of concentration, obtained from inhibition or displacement) turned out to be 1.8 nM at mouse EP1 and 200 nM at mouse EP3.
For `O=C(O)CCC/C=C\[C@@H]1[C@@H]2CC[C@@H](C2)[C@@H]1CNS(=O)(=O)c1ccc(Cl)cc1F` [Example 5(d), 6-[(1R, 2S, 3S, 4S)-3-(4-chloro-2-fluorophenylsulfonylaminomethyl)bicyclo[2.2. 1]heptan-2-yl]-5Z-hexenoic acid], in that order: 23 nM and 1200 nM.
With `O=C(O)CCC/C=C\[C@@H]1[C@@H](CNS(=O)(=O)c2ccc(Cl)cc2F)[C@H]2C=C[C@@H]1CC2` [Example 7(d), 6-[(1R, 4S, 5S, 6S)-6-(4-chloro-2-fluorophenylsulfonylaminomethyl)bicyclo[2.2. 2]oct-2-en-5-yl]-5Z-hexenoic acid], the inhibition constant Ki at mouse EP1 came out at 3.9 nM; on mouse EP3 it was 1400 nM.
For `O=C(O)CCC/C=C\[C@@H]1[C@@H]2CC[C@@H](C2)[C@@H]1CNS(=O)(=O)c1ccc(Cl)cc1Cl` [Example 5(a), 6-[(1R, 2S, 3S, 4S)-3-(2,4-dichlorophenylsulfonylaminomethyl)bicyclo[2.2. 1]-heptan-2-yl]-5Z-hexenoic acid], in that order: 12 nM and 280 nM.
Take `Cc1cc(Cl)ccc1S(=O)(=O)NC[C@H]1C2CCC(CC2)[C@H]1/C=C/CCCC(=O)O` [Example 2(n), 6-[(2S, 3S)-3-(4-chloro-2-methylphenylsulfonylaminomethyl)bicyclo[2.2. 2]-octan-2-yl]-5E-hexenoic acid]: the Ki was 5.1 nM on mouse EP1 and 1900 nM on mouse EP3.
For `O=C(O)CCC/C=C\[C@@H]1C2CCC(CC2)[C@@H]1CNS(=O)(=O)c1ccc(Cl)cc1Cl` [Example 2, 6-[(2S, 3S)-3-(2,4-dichlorophenylsulfonylaminomethyl)bicyclo[2.2. 2]octan-2-yl]-5Z-hexenoic acid], the Ki worked out at 0.5 nM at mouse EP1 and 120 nM at mouse EP3.
In the same order, the values of `O=C(O)CCC/C=C\[C@H]1CC=CC[C@@H]1CNS(=O)(=O)c1ccc(Cl)cc1F` [Example 4(c), 6-[(4R, 5S)-5-(4-chloro-2-fluorophenylsulfonylaminomethyl)cyclohexen-4-yl]-5Z-hexenoic acid] are 39 nM and 180 nM.
For `Cc1cc(Br)ccc1S(=O)(=O)NC[C@H]1C2CCC(CC2)[C@H]1/C=C\CCCC(=O)O` [Example 2(d), 6-[(2S, 3S)-3-(4-bromo-2-methylphenylsulfonylaminomethyl)bicyclo[2.2. 2]octan-2-yl]-5Z-hexenoic acid], in that order: 1.4 nM and 85 nM.
In the same order, the values of `Cc1cc(Cl)ccc1S(=O)(=O)NC[C@H]1CC=CC[C@@H]1/C=C\CCCC(=O)O` [Example 4(b), 6-[(4R, 5S)-5-(4-chloro-2-methylphenylsulfonylaminomethyl)cyclohexen-4-yl]-5Z-hexenoic acid] are 17 nM and 52 nM.
Take `O=C(O)CCC/C=C\[C@@H]1[C@@H](CNS(=O)(=O)c2c(Cl)cc(Cl)cc2Cl)[C@H]2C=C[C@@H]1CC2` [Example 7(f), 6-[(1R, 4S, 5S, 6S)-6-(2,4,6-trichlorophenylsulfonylaminomethyl)bicyclo[2.2. 2]oct-2-en-5-yl]-5Z-hexenoic acid]: the Ki stood at 7.2 nM at mouse EP1 and 1500 nM at mouse EP3.
For `O=C(O)CCC/C=C\[C@@H]1C2CCC(CC2)[C@@H]1CNS(=O)(=O)c1c(Cl)cc(Cl)cc1Cl` [Example 2(g), 6-[(2S, 3S)-3-(2,4,6-trichlorophenylsulfonylaminomethyl)bicyclo[2.2. 2]octan-2-yl]-5Z-hexenoic acid], in that order: 3.4 nM and 950 nM.
In the same order, the values of `Cc1cc(Cl)ccc1S(=O)(=O)NC[C@H]1CCCC[C@@H]1/C=C\CCCC(=O)O` [Example 3(f), 6-[(1R, 2S)-2-(4-chloro-2-methylphenylsulfonylaminomethyl)cyclohexyl]-5Z-hexenoic acid] are 1.1 nM and 41 nM.
In the same order, the values of `O=C(O)CCC/C=C\[C@@H]1[C@@H](CNS(=O)(=O)c2ccc(Cl)cc2Cl)[C@@H]2C=C[C@H]1CC2` [Example 6(a), 6-[(1S, 4R, 5S, 6S)-6-(2,4-dichlorophenylsulfonylaminomethyl)bicyclo[2.2. 2]-oct-2-en-5-yl]-5Z-hexenoic acid] are 3.9 nM and 370 nM.
As for `Cc1cc(Cl)ccc1S(=O)(=O)NC[C@H]1[C@H]2CC[C@H](C2)[C@H]1/C=C\CCCC(=O)O` [Example 5(e), 6-[(1R, 2S, 3S, 4S)-3-(4-chloro-2-methylphenylsulfonylaminomethyl)bicyclo[2.2. 1]heptan-2-yl]-5Z-hexenoic acid], the Ki at mouse EP1 was 7.2 nM; at mouse EP3 it was 200 nM.
For `Cc1cc(Br)ccc1S(=O)(=O)NC[C@H]1CC=CC[C@@H]1/C=C\CCCC(=O)O` [Example 4(f), 6-[(4R, 5S)-5-(4-bromo-2-methylphenylsulfonylaminomethyl)cyclohexen-4-yl]-5Z-hexenoic acid], the figures for the Ki at mouse EP1 and on mouse EP3 were 5.7 nM and 12 nM, respectively.
With `Cc1cc(Cl)cc(Cl)c1S(=O)(=O)NC[C@H]1C2CCC(CC2)[C@H]1/C=C\CCCC(=O)O` [Example 2(k), 6-[(2S, 3S)-3-(2,4-dichloro-6-methylphenylsulfonylaminomethyl)bicyclo[2.2. 2]octan-2-yl]-5Z-hexenoic acid], the Ki on mouse EP1 came to 2.4 nM; on mouse EP3, 1400 nM.
Take `O=C(O)CCC/C=C\[C@H]1CCCC[C@@H]1CNS(=O)(=O)c1ccc(Cl)cc1Cl` [Example 3(a), 6-[(1R, 2S)-2-(2,4-dichlorophenylsulfonylaminomethyl)cyclohexyl]-5Z-hexenoic acid]: the Ki at mouse EP1 came out at 3.1 nM; at mouse EP3, 18 nM.
In the same order, the values of `Cc1cc(Cl)cc(C)c1S(=O)(=O)NC[C@@H]1[C@@H](/C=C\CCCC(=O)O)[C@H]2C=C[C@@H]1CC2` [Example 6(e), 6-[(1S, 4R, 5S, 6S)-6-(4-chloro-2,6-dimethylphenylsulfonylaminomethyl)bicyclo[2.2. 2]oct-2-en-5-yl]-5Z-hexenoic acid] are 4.2 nM and 1100 nM.
In the same order, the values of `O=C(O)CCC/C=C\[C@H]1CCCC[C@@H]1CNS(=O)(=O)c1c(Cl)cc(Cl)cc1Cl` [Example 3(e), 6-[(1R, 2S)-2-(2,4,6-trichlorophenylsulfonylaminomethyl)cyclohexyl]-5Z-hexenoic acid] are 8.4 nM and 110 nM.
